According to US20120178738A1, “DIBENZO [B,F] [1,4]OXAZAPINE COMPOUNDS” (ARYX THERAPEUTICS, INC., priority 2007, published 2012):

Columns and labels:
catalepsy in mice = assay: Catalepsy mouse model; format: in vivo; settings: highest dose 30 mg/kg
Procedure: A catalepsy mouse model was used to investigate a potential side effect of antipsychotic agents.
The catalepsy methodology used herein has been adapted from Tada, M. et al. ((2004). Psychopharmacol., 176, 94-100) as well as Wang et al. ((2000). J. Neurosci., 20, 8305-8314).
The animals (Swiss Webster, female, about 20 g; Charles River) were administered compounds of the invention (1 μg/kg-30 mg/kg ip). Twenty seven minutes after test compound injection, the mice's forepaws were placed on a horizontal steel bar (diameter 0.2 cm), elevated 3-5 cm above the tabletop and the time taken for the animals to remove both paws was recorded for up to 2 min.

[1] = system: locomotor activity in rats; assay: Spontaneous locomotor activity (open field); format: in vivo; settings: clozapine comparator, dose not given
Procedure: One of the common side effects of many antipsychotic drugs is sedation. It has been shown that agents that have sedative actions in man have the same effect in animals. The purpose of these studies was to evaluate the effect of test compounds on the locomotor activity in rats, which is used to assess the sedative properties of antipsychotic compounds.
The animals (male Sprague Dawley rats, about 300-450 g; Charles River) were assessed for ambulation for 30 minutes before and for 30 min after vehicle or test compounds. […] Locomotor activity is quantified by the number of photobeams crossed by the animal over several 3×10 min intervals.

5-HT2A receptor = target: T1, 5-HT2A receptor (Rattus norvegicus, UniProt P14842); assay: cell-based; settings: read-out: 5HT2A (pKb) (converted)
T1 construct: Eight strips of tissue (0.5 cm long) were cut. and were mounted in 10 ml organ baths; tissue Charles River Laboratories; host or cells: rat aorta strips, endothelium removed
T1 sequence (P14842 whole entry): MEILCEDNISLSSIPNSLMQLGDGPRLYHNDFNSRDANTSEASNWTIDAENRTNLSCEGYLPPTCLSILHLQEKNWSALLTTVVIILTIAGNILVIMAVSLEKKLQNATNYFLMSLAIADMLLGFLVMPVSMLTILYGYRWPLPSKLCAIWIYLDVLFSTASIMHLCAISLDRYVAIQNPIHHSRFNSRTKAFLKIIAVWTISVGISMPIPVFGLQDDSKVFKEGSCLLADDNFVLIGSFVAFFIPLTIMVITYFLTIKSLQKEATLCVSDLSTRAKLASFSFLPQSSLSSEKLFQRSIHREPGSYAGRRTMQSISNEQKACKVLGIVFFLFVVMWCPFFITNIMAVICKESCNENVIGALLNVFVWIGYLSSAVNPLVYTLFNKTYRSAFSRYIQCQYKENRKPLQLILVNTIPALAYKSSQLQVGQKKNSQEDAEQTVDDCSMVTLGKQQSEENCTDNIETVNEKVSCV
How it was run: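 Endothelium-denuded aortic strips from male Sprague Dawley rats held at 37° C in carbogen-aerated Krebs, pH 7.4, under 2 g resting tension. Contraction recorded as tension change, expressed as % of maximal 5-HT response; agonist EC50 from Parker–Waud fit, antagonist pKB/pA2 from concentration-ratios.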

[2] = target: T2, human D2s dopamine receptors (Homo sapiens, UniProt P14416); assay: hD2S receptor radioligand binding ([3H]spiperone); settings: pKi reported on a scale of 1 through 5
T2 construct: expressed in transfected cells; host or cells: Chinese hamster ovary cells (membranes)
T2 sequence (P14416 1-414 isoform P14416-2): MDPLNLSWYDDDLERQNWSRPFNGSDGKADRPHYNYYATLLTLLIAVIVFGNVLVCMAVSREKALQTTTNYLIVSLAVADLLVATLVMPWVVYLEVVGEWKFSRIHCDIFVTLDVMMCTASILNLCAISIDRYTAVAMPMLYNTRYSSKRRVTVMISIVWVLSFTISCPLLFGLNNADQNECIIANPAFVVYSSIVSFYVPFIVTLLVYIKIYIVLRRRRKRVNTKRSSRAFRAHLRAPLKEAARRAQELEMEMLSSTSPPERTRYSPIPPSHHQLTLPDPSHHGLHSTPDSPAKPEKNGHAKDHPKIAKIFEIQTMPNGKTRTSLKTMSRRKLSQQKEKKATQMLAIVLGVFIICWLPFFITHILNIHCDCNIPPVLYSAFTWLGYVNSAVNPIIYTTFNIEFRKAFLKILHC
How it was run: (§1)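 Competition binding: membranes or tissue bearing the receptor incubated to equilibrium with a single radioligand concentration plus a range of unlabelled test compound concentrations; bound and free separated by filtration. Nonspecific binding defined with a known blocker; displacement curves corrected for it gave binding values.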

[3] = target: T3, human D2L dopamine receptors (Homo sapiens, UniProt P14416); assay: hD2L receptor radioligand binding ([3H]spiperone); settings: pKi reported on a scale of 1 through 5; read-out: D2L (pKi) (converted)
T3 construct: expressed in transfected cells; host or cells: insect Sf9 cells (membranes)
T3 sequence (P14416 whole entry): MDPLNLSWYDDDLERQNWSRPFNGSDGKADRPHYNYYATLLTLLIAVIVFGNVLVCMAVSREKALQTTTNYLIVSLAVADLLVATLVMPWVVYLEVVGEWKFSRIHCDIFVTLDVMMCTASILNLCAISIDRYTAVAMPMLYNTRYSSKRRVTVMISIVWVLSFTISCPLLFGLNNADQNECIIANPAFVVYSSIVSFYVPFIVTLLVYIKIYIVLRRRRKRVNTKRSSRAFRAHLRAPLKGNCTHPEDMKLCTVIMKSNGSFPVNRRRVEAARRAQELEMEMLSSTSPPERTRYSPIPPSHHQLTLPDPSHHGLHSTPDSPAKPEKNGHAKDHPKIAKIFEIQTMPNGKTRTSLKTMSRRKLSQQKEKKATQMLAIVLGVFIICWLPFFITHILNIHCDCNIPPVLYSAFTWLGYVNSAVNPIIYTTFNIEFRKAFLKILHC
How it was run: as §1

human 5HT1A receptors = target: T4, human 5HT1A receptors (Homo sapiens, UniProt P08908); assay: h5-HT1A receptor radioligand binding ([3H]8OH-DPAT); settings: pKi reported on a scale of 1 through 5
T4 construct: expressed in transfected cells; host or cells: Chinese hamster ovary cells (membranes)
T4 sequence (P08908 1-422): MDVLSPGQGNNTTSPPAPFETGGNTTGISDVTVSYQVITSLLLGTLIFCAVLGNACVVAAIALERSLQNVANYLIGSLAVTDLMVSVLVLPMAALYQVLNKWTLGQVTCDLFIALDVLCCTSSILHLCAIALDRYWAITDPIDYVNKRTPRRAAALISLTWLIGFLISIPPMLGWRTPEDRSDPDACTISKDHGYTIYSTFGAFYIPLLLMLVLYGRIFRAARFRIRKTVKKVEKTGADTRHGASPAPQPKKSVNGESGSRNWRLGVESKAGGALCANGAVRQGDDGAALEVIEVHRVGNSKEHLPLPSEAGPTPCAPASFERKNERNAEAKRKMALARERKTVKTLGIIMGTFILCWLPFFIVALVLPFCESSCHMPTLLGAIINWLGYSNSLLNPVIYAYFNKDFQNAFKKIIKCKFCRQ
How it was run: as §1

human 5HT2C receptors = target: T5, human 5HT2C receptors (Homo sapiens, UniProt P28335); assay: h5-HT2C receptor radioligand binding ([3H]Mesulergine); settings: pKi reported on a scale of 1 through 5
T5 construct: expressed in transfected cells; host or cells: human embryo kidney cells (membranes)
T5 sequence (P28335 33-458): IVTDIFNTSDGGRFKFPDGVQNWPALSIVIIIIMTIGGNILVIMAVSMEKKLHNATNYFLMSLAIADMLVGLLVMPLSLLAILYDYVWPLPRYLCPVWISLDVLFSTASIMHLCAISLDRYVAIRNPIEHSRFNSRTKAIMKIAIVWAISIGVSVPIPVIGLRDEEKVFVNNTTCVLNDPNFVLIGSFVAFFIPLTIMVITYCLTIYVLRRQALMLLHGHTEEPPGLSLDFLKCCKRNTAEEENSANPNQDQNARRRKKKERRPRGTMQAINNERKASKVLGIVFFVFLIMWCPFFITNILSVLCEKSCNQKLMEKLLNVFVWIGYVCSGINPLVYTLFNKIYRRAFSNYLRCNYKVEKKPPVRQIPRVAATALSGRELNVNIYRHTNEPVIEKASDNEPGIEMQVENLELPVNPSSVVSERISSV
How it was run: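 Competition binding: membranes incubated to equilibrium with a single concentration of [3H]mesulergine and a range of unlabeled test compound concentrations, then filtered. Nonspecific binding defined with a known receptor blocker; displacement concentration-response, corrected for nonspecific binding, gave the affinity measure.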

human M3 receptors = target: T6, human M3 receptors (Homo sapiens, UniProt P20309); assay: hM3 receptor radioligand binding ([3H]NMS); settings: pKi reported on a scale of 1 through 5; read-out: M3 (pKi) (converted)
T6 construct: expressed in transfected cells; host or cells: Chinese hamster ovary cells (membranes)
T6 sequence (P20309 whole entry): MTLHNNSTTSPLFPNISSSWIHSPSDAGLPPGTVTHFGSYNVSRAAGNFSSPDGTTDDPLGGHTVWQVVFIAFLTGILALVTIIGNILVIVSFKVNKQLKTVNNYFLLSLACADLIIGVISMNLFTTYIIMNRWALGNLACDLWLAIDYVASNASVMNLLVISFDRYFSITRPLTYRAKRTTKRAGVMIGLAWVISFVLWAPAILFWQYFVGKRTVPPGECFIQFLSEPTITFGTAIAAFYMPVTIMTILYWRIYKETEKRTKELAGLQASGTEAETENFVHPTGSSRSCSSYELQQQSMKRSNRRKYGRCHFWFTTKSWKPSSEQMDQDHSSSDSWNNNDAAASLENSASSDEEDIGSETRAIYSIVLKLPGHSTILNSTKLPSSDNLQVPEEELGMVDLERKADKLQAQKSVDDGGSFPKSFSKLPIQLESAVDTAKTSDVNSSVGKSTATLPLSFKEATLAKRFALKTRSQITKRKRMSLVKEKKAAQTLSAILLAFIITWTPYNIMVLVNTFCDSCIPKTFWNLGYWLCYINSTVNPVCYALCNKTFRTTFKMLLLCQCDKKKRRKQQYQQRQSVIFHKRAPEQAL
How it was run: as §1

human H1 receptors = target: T7, human H1 receptors (Homo sapiens, UniProt P35367); assay: hH1 receptor radioligand binding ([3H]Pyrilamine); settings: pKi reported on a scale of 1 through 5
T7 construct: expressed in transfected cells; host or cells: Chinese hamster ovary cells (membranes)
T7 sequence (P35367 whole entry): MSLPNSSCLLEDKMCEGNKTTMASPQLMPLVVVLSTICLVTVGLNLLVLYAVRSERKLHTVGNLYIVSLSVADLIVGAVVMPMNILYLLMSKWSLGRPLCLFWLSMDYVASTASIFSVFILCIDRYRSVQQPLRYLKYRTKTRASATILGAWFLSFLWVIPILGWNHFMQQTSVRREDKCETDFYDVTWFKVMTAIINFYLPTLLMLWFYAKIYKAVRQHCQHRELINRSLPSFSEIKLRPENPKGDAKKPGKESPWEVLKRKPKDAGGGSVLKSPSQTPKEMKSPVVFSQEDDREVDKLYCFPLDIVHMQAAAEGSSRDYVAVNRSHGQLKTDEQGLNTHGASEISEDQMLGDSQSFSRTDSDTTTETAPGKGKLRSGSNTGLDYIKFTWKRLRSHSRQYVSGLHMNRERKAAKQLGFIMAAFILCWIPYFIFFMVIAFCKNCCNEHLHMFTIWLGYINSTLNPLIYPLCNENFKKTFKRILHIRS
How it was run: as §1

human 5HT7 receptors = target: T8, human 5HT7 receptors (Homo sapiens, UniProt P34969); assay: h5-HT7 receptor radioligand binding ([3H]5-CT); settings: pKi reported on a scale of 1 through 5; read-out: 5HT7 (pKi) (converted)
T8 construct: expressed in transfected cells; host or cells: Chinese hamster ovary cells (membranes)
T8 sequence (P34969 whole entry): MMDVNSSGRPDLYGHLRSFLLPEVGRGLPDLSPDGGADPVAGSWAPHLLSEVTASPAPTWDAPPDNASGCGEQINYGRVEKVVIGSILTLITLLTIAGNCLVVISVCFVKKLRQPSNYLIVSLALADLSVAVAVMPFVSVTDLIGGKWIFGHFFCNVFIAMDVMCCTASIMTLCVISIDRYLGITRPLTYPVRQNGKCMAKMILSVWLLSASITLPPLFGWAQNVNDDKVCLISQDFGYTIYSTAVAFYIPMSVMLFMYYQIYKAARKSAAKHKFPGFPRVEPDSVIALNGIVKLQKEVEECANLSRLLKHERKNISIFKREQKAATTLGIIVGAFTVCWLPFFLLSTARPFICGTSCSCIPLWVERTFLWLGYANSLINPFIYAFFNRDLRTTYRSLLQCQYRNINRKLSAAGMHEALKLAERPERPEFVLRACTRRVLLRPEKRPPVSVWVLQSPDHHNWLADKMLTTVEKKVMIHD
How it was run: as §1

human M1 receptors = target: T9, human M1 receptors (Homo sapiens, UniProt P11229); assay: hM1 receptor radioligand binding ([3H]NMS); settings: pKi reported on a scale of 1 through 5
T9 construct: expressed in transfected cells; host or cells: Chinese hamster ovary cells (membranes)
T9 sequence (P11229 1-460): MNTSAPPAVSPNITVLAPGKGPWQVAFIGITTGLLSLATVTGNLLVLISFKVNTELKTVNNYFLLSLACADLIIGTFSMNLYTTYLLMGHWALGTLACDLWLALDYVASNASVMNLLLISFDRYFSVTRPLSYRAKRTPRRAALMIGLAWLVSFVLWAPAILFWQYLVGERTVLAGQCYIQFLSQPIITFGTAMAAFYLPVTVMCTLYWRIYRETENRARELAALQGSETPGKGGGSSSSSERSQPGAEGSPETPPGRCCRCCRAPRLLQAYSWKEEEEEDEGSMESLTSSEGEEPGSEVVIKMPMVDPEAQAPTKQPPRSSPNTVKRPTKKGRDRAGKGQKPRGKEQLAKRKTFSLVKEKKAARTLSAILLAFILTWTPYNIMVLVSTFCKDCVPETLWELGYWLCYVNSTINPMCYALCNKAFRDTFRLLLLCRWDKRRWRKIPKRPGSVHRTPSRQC
How it was run: as §1

Row | SMILES | catalepsy (catalepsy in mice) | locomotor activity in rat (open field) [1] | Kb (5-HT2A receptor) | Ki [2] | Ki [3] | Ki (human 5HT1A receptors) | Ki (human 5HT2C receptors) | Ki (human M3 receptors) | Ki (human H1 receptors) | Ki (human 5HT7 receptors) | Ki (human M1 receptors)
1 | CN1CCN(C2=Nc3cc(Cl)ccc3Nc3ccccc32)CC1 [clozapine, reference compound] | induced catalepsy | trend toward sedation |  |  |  |  |  |  |  |  | 
2 | CN(CCO)C(=O)C[C@H]1CN(C2=Nc3cc(Cl)ccc3Oc3ccccc32)CCN1 [FO, (S,E)-2-(4-(8-chlorodibenzo[b,f][1,4]oxazepin-11-yl)piperazin-2-yl)-N-(2-hydroxyethyl)-N-methylacetamide] |  |  | 10 to 30.9 nM | 2510 to 9770 nM | 2510 to 9770 nM | 100 to 977 nM | 10 to 97.7 nM | > 10000 nM | 10 to 97.7 nM | 631 to 1550 nM | 2510 to 4900 nM
3 | COc1ccc(NC(=O)C[C@H]2CN(C3=Nc4cc(Cl)ccc4Oc4ccccc43)CCN2)cn1 [FP, (S,E)-2-(4-(8-chlorodibenzo[b,f][1,4]oxazepin-11-yl)piperazin-2-yl)-N-(6-methoxypyridin-3-yl)acetamide] |  |  | 10 to 30.9 nM | 631 to 2450 nM | 631 to 2450 nM | ≤ 9.77 nM | 10 to 97.7 nM | > 10000 nM | 10 to 97.7 nM | 1580 to 3890 nM | 5010 to 9770 nM
